Key:
Format in all cases: biochemical
human Axl (473-end) = target: T1, human Axl (473-end) (Homo sapiens, UniProt P30530); assay: Kinase enzymatic activity assay ([33P]-ATP phosphate transfer), Axl; conditions: inhibitory activity on Axl; class symbols
T1 construct: GST (N); made in house; host or cells: Sf9 insect cells (baculovirus)
T1 sequence (P30530 473-894 limits assumed): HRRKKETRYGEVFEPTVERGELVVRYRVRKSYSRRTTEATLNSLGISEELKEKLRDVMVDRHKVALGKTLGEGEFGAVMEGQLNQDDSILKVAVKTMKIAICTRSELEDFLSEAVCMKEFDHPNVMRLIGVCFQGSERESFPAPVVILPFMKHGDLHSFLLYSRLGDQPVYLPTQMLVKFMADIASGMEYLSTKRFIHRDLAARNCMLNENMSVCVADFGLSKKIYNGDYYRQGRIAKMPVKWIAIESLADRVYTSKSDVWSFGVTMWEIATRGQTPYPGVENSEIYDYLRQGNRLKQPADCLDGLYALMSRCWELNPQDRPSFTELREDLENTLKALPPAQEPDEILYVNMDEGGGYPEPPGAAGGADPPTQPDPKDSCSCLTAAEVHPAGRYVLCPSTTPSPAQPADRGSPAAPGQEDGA
Procedure: (§1) Preparation of Active Recombinant Kinase Proteins:
(§2) Recombinant human Tyro3 (455-end, the gene accession number NM_006293), human Axl (473-end, the gene accession number NM_021913) and human Mer (578-872, the gene accession number NM_006343) were independently expressed by baculovirus in Sf9 insect cells using an N-terminal GST tag. The recombinant proteins were stored at −70° C. in a medium containing 50 mM Tris-HCl, pH 7.5, 150 mM NaCl, 10 mM glutathione, 0.1 mM EDTA, 0.25 mM DTT, 0.1 mM PMSF and 25% glycerol. The recombinant proteins were aliquoted into smaller quantities after centrifugation to avoid repeated handling and multiple freeze/thaw cycles for the most favorable performance.
(§3) Preparation of Assay Reagents:
(§4) Kinase Assay Buffer: This buffer solution consisted of the following components: 25 mM MOPS, pH 7.2, 12.5 mM β-glycerol-phosphate, 25 mM MgCl2, 5 mM EGTA, 2 mM EDTA and DTT 0.25 mM which was added prior to use.
(§5) Kinase Dilution Buffer: Kinase Assay Buffer was diluted at a 1:4 ratio (5× dilution) with distilled water.
(§6) [^33P]-ATP assay cocktail: In a designated radioactive working area, a 250 μM [^33P]-ATP assay cocktail was prepared by the addition of the following components: 150 μL of 10 mM ATP stock solution, 100 μL [^33P]-ATP (1 mci/100 μL), 5.75 mL of kinase assay buffer. This solution was stored in 1 mL aliquots at −20 OC.
(§7) ATP stock solution (10 mM): The ATP stock solution was prepared by dissolving 55 mg of ATP in 10 mL of kinase assay buffer. It was stored in 200 μL aliquots at −20° C.
(§8) Active Kinase Stock Solution: The active recombinant kinase protein (0.1 μg/μL) was diluted with Kinase Dilution Buffer and the activity was assayed using a serial dilution method. The specific activity is expressed in nmoL/min/mg.
(§9) Substrates: poly(4:1 glu:tyr) is the substrate used for each kinase Tyro3, Axl and Mer: The peptide substrate was dissolved in water to give the final concentration of 1 mg/mL.
(§10) Test compound solution: Test compound was dissolved in DMSO to obtain a 10 mM solution. The assay solution was prepared by adding 5 μL of this solution to […] of 10% DMSO/water to obtain the final concentration of 50 μM.
(§11) The enzymatic activity of all three kinases was determined as follows. Using a 96-well plate, the wells were divided into three categories: Blank wells, […] and Test wells. In Test wells, 5 μL of the test compound solution and 5 μL of the substrate solution were added. In Control wells, 5 μL of 10% DMSO/water and 5 μL of the substrate solution were added. In Blank wells, 10 μL of 10% DMSO/water was added. To each well was added 10 μL of Active Kinase Stock Solution to make up the volume in each well to 20 μL. All test samples, controls and blanks were run in duplicate. The reaction was initiated by the addition of 5 μL of [^33P]-ATP assay cocktail, bringing the final volume up to 25 μL in every well. The mixture was incubated at room temperature for 30 minutes. The reaction was terminated by transferring 10 μL of the reaction mixture into a Millipore MultiScreen filter plate (cat. number MSPHN6B50). The filter plate was washed in a 1% phosphoric acid solution with constant gentle shaking for 15 minutes and this step was repeated once. After the plate was dried in air, scintillation fluid was added to each well and the radioactivity in each well in CPM was counted by a Microbeta TriLux. The corrected CPM in each test well was determined by subtracting the average value of Blank well values. Percentage of inhibition of the kinase enzymatic activity by the test compound was determined using the following formula: […]
(§12) The IC50 values were determined in a similar way following a serial dilution of the test compound. The percentage of inhibition at each concentration was calculated following the above formula. The IC50 was estimated from the curve of % Inhibition against Concentration in log unit using Prism 5, version 5.01.

[1] = target: T2, Recombinant human Tyro3 (455-end) (Homo sapiens, UniProt Q06418); assay: Kinase enzymatic activity assay ([33P]-ATP phosphate transfer), Tyro3; conditions: inhibitory activity on Tyro3; class symbols
T2 construct: GST (N); made in house; host or cells: Sf9 insect cells (baculovirus)
T2 sequence (Q06418 455-890 limits assumed): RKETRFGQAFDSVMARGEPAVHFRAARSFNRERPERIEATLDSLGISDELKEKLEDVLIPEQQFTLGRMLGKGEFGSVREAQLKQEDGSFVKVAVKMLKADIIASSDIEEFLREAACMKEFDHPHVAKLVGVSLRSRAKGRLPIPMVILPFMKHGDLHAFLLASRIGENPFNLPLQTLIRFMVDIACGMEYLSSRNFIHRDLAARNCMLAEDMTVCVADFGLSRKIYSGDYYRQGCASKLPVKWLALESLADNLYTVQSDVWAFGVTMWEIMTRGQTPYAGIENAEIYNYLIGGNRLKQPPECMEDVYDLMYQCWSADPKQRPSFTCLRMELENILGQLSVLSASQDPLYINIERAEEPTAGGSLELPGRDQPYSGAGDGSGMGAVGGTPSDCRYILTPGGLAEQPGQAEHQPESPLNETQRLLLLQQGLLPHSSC
Procedure: as §1, §2, §3, §4, §5, §6, §7, §8, §9, §10, §11, §12

human Mer (578-872) = target: T3, human Mer (578-872) (Homo sapiens, UniProt Q12866); assay: Kinase enzymatic activity assay ([33P]-ATP phosphate transfer), Mer; conditions: inhibitory activity on Mer; class symbols
T3 construct: GST (N); made in house; host or cells: Sf9 insect cells (baculovirus)
T3 sequence (Q12866 578-872): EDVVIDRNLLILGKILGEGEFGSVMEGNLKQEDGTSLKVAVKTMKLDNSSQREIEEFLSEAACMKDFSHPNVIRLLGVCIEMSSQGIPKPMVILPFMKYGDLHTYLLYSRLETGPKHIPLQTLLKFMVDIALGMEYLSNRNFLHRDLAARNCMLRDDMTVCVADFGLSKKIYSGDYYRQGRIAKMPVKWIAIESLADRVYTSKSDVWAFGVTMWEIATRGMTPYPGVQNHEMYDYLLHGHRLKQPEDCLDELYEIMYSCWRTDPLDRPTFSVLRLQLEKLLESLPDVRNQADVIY
Procedure: as §1, §2, §3, §4, §5, §6, §7, §8, §9, §10, §11, §12

| SMILES | IC50 (human Axl (473-end)) | IC50 [1] | IC50 (human Mer (578-872)) |
| --- | --- | --- | --- |
| CN1CCC(n2cc(-c3cnc(N)c(-c4ncc(-c5cccc(Cl)c5)o4)c3)cn2)CC1 [3-(5-(3-chlorophenyl)oxazol-2-yl)-5-(1-(1-methylpiperidin-4-yl)-1H-pyrazol-4-yl)pyridin-2-amine] | < 500 nM | < 500 nM | < 500 nM |
| Nc1ncc(-c2cnn(C3CCNCC3)c2)cc1-c1ncc(-c2cccc(Cl)c2)o1 [3-(5-(3-chlorophenyl)oxazol-2-yl)-5-(1-(piperidin-4-yl)-1H-pyrazol-4-yl)pyridin-2-amine] | < 500 nM | < 500 nM | < 500 nM |
| Nc1ncc(-c2cnn(C3CCCCC3)c2)cc1-c1ncc(-c2cccc(Cl)c2)o1 [3-(5-(3-chlorophenyl)oxazol-2-yl)-5-(1-cyclohexyl-1H-pyrazol-4-yl)pyridin-2-amine] | 1000 to 10000 nM | 1000 to 10000 nM | 1000 to 10000 nM |
| CC(C)(C)c1ccc(-c2nnc(-c3cc(-c4cnn(C5CCNCC5)c4)cnc3N)o2)cc1 [3-(5-(4-(tert-butyl)phenyl)-1,3,4-oxadiazol-2-yl)-5-(1-(piperidin-4-yl)-1H-pyrazol-4-yl)pyridin-2-amine] | < 500 nM | < 500 nM | < 500 nM |
| CC(C)(C)c1ccc(-c2nnc(-c3cc(-c4cn[nH]c4)cnc3N)o2)cc1 [3-(5-(4-(tert-butyl)phenyl)-1,3,4-oxadiazol-2-yl)-5-(1H-pyrazol-4-yl)pyridin-2-amine] | 1000 to 10000 nM | > 10000 nM | > 10000 nM |
| CN1CCC(n2cc(-c3cnc(N)c(-c4ncc(-c5ccc(Cl)cc5)o4)c3)cn2)CC1 [3-(5-(4-chlorophenyl)oxazol-2-yl)-5-(1-(1-methylpiperidin-4-yl)-1H-pyrazol-4-yl)pyridin-2-amine] | < 500 nM | < 500 nM | < 500 nM |
| Nc1ncc(-c2cnn(C3CCNCC3)c2)cc1-c1ncc(-c2ccc(Cl)cc2)o1 [3-(5-(4-chlorophenyl)oxazol-2-yl)-5-(1-(piperidin-4-yl)-1H-pyrazol-4-yl)pyridin-2-amine] | < 500 nM | < 500 nM | < 500 nM |
| Nc1ncc(-c2cnn(C3CCCCC3)c2)cc1-c1ncc(-c2ccc(Cl)cc2)o1 [3-(5-(4-chlorophenyl)oxazol-2-yl)-5-(1-cyclohexyl-1H-pyrazol-4-yl)pyridin-2-amine] | > 10000 nM | > 10000 nM | > 10000 nM |
| Nc1ncc(-c2cnn(C3CCNCC3)c2)cc1-c1nnc(-c2ccc(F)cc2)o1 [3-(5-(4-fluorophenyl)-1,3,4-oxadiazol-2-yl)-5-(1-(piperidin-4-yl)-1H-pyrazol-4-yl)pyridin-2-amine] | < 500 nM | < 500 nM | < 500 nM |
| Nc1ncc(-c2cn[nH]c2)cc1-c1nnc(-c2ccc(F)cc2)o1 [3-(5-(4-fluorophenyl)-1,3,4-oxadiazol-2-yl)-5-(1H-pyrazol-4-yl)pyridin-2-amine] | < 500 nM | < 500 nM | 500 to 1000 nM |
| Nc1ncc(-c2cnn(C3CCNCC3)c2)cc1-c1nnc(CC2CC2)o1 [3-(5-(cyclopropylmethyl)-1,3,4-oxadiazol-2-yl)-5-(1-(piperidin-4-yl)-1H-pyrazol-4-yl)pyridin-2-amine] | < 500 nM | < 500 nM | < 500 nM |
| Nc1ncc(-c2cnn(C3CCNCC3)c2)cc1-c1nnc(Cc2ccccc2)o1 [3-(5-benzyl-1,3,4-oxadiazol-2-yl)-5-(1-(piperidin-4-yl)-1H-pyrazol-4-yl)pyridin-2-amine] | < 500 nM | < 500 nM | < 500 nM |
| Nc1ncc(-c2cnn(C3CCNCC3)c2)cc1-c1noc(-c2ccccc2)n1 [3-(5-phenyl-1,2,4-oxadiazol-3-yl)-5-(1-(piperidin-4-yl)-1H-pyrazol-4-yl)pyridin-2-amine] | < 500 nM | < 500 nM | < 500 nM |
| Nc1ncc(-c2cnn(C3CCOCC3)c2)cc1-c1noc(-c2ccccc2)n1 [3-(5-phenyl-1,2,4-oxadiazol-3-yl)-5-(1-(tetrahydro-2H-pyran-4-yl)-1H-pyrazol-4-yl)pyridin-2-amine] | < 500 nM | 500 to 1000 nM | 1000 to 10000 nM |
| Nc1ncc(-c2cn[nH]c2)cc1-c1noc(-c2ccccc2)n1 [3-(5-phenyl-1,2,4-oxadiazol-3-yl)-5-(1H-pyrazol-4-yl)pyridin-2-amine] | < 500 nM | < 500 nM | 1000 to 10000 nM |
| Nc1ncc(-c2cnn(C3CCNCC3)c2)cc1-c1nnc(-c2ccccc2)o1 [3-(5-phenyl-1,3,4-oxadiazol-2-yl)-5-(1-(piperidin-4-yl)-1H-pyrazol-4-yl)pyridin-2-amine] | < 500 nM | < 500 nM | < 500 nM |
| Nc1ncc(-c2cnn(C3CCOCC3)c2)cc1-c1nnc(-c2ccccc2)o1 [3-(5-phenyl-1,3,4-oxadiazol-2-yl)-5-(1-(tetrahydro-2H-pyran-4-yl)-1H-pyrazol-4-yl)pyridin-2-amine] | < 500 nM | < 500 nM | < 500 nM |
| Nc1ncc(-c2cn[nH]c2)cc1-c1nnc(-c2ccccc2)o1 [3-(5-phenyl-1,3,4-oxadiazol-2-yl)-5-(1H-pyrazol-4-yl)pyridin-2-amine] | < 500 nM | < 500 nM | 500 to 1000 nM |
| Nc1ncc(-c2cnn(C3CCNCC3)c2)cc1-c1ccc(-c2ccccc2)o1 [3-(5-phenylfuran-2-yl)-5-(1-(piperidin-4-yl)-1H-pyrazol-4-yl)pyridin-2-amine] | < 500 nM | < 500 nM | 500 to 1000 nM |
